Laboratory results taken from ChEMBL document CHEMBL1134592, “Design and synthesis of matrix metalloproteinase inhibitors guided by molecular modeling. Picking the S(1) pocket using conformationally constrained inhibitors” (J Med Chem, 2001).

What was measured:
Stromelysin-1 = Stromelysin-1 (Homo sapiens, UniProt P08254); assay: Inhibition of matrix metalloprotease-3
[1] = target: 72 kDa type IV collagenase (Homo sapiens, UniProt P08253); assay: Inhibition of matrix metalloprotease-2
Collagenase 3 = Collagenase 3 (Homo sapiens, UniProt P45452); assay: Inhibition of matrix metalloprotease-13
[2] = target: Matrix metalloproteinase-9 (Homo sapiens, UniProt P14780); assay: Inhibition of human matrix metalloprotease-9
Matrix metalloproteinase-9, sequence (P14780 whole entry): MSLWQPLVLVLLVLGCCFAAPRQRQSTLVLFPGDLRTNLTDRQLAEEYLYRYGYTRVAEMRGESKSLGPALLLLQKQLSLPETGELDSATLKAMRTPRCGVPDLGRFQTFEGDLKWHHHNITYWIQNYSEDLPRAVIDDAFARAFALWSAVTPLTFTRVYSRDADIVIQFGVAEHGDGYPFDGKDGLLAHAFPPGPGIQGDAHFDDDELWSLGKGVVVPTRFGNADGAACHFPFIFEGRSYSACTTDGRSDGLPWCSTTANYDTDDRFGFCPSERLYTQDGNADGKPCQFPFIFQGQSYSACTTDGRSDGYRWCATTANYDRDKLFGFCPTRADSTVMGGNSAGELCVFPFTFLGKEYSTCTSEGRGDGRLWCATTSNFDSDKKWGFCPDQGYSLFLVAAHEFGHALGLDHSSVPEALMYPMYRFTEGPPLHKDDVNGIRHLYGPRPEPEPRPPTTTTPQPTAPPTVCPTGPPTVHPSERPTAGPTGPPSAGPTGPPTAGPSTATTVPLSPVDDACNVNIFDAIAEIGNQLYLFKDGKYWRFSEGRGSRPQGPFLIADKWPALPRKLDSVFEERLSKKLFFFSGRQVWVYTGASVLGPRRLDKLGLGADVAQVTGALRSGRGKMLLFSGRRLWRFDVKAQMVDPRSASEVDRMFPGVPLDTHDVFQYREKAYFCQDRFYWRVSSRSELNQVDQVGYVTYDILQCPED

Interstitial collagenase = target: T1, Interstitial collagenase (Homo sapiens, UniProt P03956); assay: Inhibition of human matrix metalloprotease-1
T1 sequence (P03956 whole entry): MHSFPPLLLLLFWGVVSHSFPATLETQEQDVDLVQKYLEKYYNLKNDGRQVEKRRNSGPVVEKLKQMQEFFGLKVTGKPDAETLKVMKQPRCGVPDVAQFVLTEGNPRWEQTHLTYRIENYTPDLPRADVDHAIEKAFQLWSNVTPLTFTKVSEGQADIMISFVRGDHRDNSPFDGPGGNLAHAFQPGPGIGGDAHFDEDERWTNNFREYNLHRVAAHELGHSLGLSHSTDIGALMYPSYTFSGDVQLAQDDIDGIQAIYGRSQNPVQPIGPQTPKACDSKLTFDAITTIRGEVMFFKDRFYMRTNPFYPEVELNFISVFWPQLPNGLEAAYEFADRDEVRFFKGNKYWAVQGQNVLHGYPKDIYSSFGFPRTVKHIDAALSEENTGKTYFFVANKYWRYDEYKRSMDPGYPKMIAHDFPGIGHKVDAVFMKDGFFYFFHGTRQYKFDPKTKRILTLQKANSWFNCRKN

72 kDa type IV collagenase, sequence (P08253 whole entry): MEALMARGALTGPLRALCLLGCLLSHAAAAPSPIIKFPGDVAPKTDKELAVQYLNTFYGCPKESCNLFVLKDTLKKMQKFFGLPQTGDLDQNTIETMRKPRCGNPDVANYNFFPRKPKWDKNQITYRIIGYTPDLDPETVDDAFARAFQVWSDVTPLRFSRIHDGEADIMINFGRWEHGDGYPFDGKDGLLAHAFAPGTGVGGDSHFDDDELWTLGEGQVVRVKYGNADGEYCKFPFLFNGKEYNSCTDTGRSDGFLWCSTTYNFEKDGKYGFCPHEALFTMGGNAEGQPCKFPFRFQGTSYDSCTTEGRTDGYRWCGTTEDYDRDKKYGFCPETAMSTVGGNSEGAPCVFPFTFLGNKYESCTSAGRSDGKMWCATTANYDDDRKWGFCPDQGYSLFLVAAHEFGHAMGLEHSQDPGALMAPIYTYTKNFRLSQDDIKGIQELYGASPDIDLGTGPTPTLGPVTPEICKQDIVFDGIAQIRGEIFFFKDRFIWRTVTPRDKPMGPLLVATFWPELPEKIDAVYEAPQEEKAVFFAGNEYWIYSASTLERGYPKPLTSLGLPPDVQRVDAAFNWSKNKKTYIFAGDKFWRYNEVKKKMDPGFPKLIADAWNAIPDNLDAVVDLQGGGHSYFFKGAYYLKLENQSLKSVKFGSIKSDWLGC
Stromelysin-1, sequence (P08254 whole entry): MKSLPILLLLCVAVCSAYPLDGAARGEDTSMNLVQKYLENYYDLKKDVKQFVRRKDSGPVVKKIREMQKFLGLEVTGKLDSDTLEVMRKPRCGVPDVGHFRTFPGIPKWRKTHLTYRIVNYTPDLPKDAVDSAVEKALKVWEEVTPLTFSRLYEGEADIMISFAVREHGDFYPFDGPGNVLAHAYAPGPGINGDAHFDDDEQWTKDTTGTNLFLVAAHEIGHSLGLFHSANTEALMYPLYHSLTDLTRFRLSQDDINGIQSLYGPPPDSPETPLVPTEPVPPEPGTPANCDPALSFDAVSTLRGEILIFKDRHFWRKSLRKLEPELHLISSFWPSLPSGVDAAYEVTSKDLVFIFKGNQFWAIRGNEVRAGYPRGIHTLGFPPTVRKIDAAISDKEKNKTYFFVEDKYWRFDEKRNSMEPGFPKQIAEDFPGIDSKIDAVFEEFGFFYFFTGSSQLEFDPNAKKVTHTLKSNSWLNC

Row | SMILES | IC50 (Stromelysin-1) [nM] | IC50 [1] [nM] | IC50 (Collagenase 3) [nM] | IC50 [2] [nM] | IC50 (Interstitial collagenase) [nM]
1 | COc1ccc(S(=O)(=O)N2CC(C)(C)C(CSCCc3ccccc3)[C@@H]2C(=O)NO)cc1 (some centres not stated) | 6.5 | 15.4 | 17 | 2.8 | 654
2 | C=CC1[C@H](C(=O)NO)N(S(=O)(=O)c2ccc(OC)cc2)CC1(C)C (some centres not stated) | 293 | 441 | 519 | 138 | –
3 | COc1ccc(S(=O)(=O)N(CC(C)C)[C@H](CCSCc2ccccc2)C(=O)NO)cc1 | 0.7 | 0.7 | 12 | 2.5 | 104
4 | COc1ccc(S(=O)(=O)N2CC(C)(C)C(COCc3ccccc3)[C@@H]2C(=O)NO)cc1 (some centres not stated) | 10.1 | 32 | 44.2 | 9.2 | 1620
5 | COc1ccc(S(=O)(=O)N2CC(C)(C)C(CO)[C@@H]2C(=O)NO)cc1 (some centres not stated) | 136 | 143 | 218 | 50 | –

Next, values leading:

Row | IC50 (Stromelysin-1) [nM] | IC50 [1] [nM] | IC50 (Collagenase 3) [nM] | IC50 [2] [nM] | IC50 (Interstitial collagenase) [nM] | SMILES
6 | 6.7 | 1.64 | 5.5 | 0.9 | – | COc1ccc(S(=O)(=O)N2CC(C)(C)C(CSCc3ccccc3)[C@@H]2C(=O)NO)cc1 (some centres not stated)
7 | 18.7 | 16.2 | 18.1 | 3.6 | 301 | COc1ccc(S(=O)(=O)N2CC(C)(C)C([C@@H](O)CSc3ccccc3)[C@@H]2C(=O)NO)cc1 (some centres not stated)
8 | 16.7 | 4.6 | 22.3 | 4.4 | 458 | COc1ccc(CSCC2[C@H](C(=O)NO)N(S(=O)(=O)c3ccc(OC)cc3)CC2(C)C)cc1 (some centres not stated)
9 | 3 | 2.5 | 3.7 | 0.9 | 117 | COc1ccc(S(=O)(=O)N2CC(C)(C)C([C@H](O)CSc3ccccc3)[C@@H]2C(=O)NO)cc1 (some centres not stated)
